Where only a bound is given, the exact number is not on record here.

The first assay concerns the target T1, RORγ ligand binding domain (LBD) (Homo sapiens, UniProt P51449).
T1 construct: made in house; host or cells: E. coli BL-21 (BL3), vector pDEST15
T1 sequence (P51449 269-508 limits assumed): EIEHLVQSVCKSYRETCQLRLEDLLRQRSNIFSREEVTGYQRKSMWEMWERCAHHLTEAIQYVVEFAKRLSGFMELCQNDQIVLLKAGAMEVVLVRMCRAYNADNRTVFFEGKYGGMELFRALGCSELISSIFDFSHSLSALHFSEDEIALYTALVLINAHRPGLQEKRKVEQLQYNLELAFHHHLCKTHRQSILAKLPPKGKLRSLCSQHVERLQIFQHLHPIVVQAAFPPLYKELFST
Nature of the assay: TR-FRET Activity Assay (ligand sensing, RORγ-LBD / coactivator peptide interaction). In kind it is biochemical.
Conditions: not given
From the text: This method measures the ability of putative ligands to modulate the interaction between the purified bacterial expressed RORγ ligand binding domain (LBD) and synthetic N-terminally biotinylated peptides which are derived from nuclear receptor coactivator proteins such as but not limited to SRC1 (NcoA1), SRC2 (NcoA2, TIF2), SRC3 (NcoA3), PGC1α, PGC1β, CBP, GRIP1, TRAP220, RIP140.
The ligand-binding domain (LBD) of RORγ was expressed as fusion protein with GST in […] cells using the vector pDEST15. Cells were lysed by lysozyme-treatment and sonication, and the fusion proteins purified over glutathione sepharose (Pharmacia) according to the manufacturers instructions. For screening of compounds for their influence on the RORγ-peptide interaction, the LANCE technology (Perkin Elmer) was applied. This method relies on the binding dependent energy transfer from a donor to an acceptor fluorophor attached to the binding partner of interest. For ease of handling and reduction of background from compound fluorescence LANCE technology makes use of generic fluorophore labels and time resolved detection assays were done in a final volume of 25 μL in a 384 well plate, in a Tris-based buffer system (20 mM Tris-HCl pH6.8; 60 mM KCl, 1 mM DTT; 5 mM MgCl2; 35 ng/μL BSA), containing 20-60 ng/well recombinantly expressed RORγ-LBD fused to GST, 200-600 nM N-terminally biotinylated peptide, 200 ng/well Streptavidin-xIAPC conjugate (Prozyme) and 6-10 ng/well Eu W1024-antiGST (Perkin Elmer). DMSO content of the samples was kept at 1%.
After generation of the Tris-based buffer system, the potentially RORγ modulating ligands were diluted. […] The LANCE signal was detected by a Perkin Elmer EnVision™ Multilabel Counter. The results were visualized by plotting the ratio between the emitted light at 665 nm and 615 nm. […] Ligands that promote the complex formation induce a concentration-dependent increase in time-resolved fluorescent signal.
The normalised TR-FRET assay values, using the following equation: 1000*665 nm measurement value/615 nm measurement value, were transferred to the program GraphPad Prism to generate graphs and dose response curves using the following equation:
Equation: Sigmoidal Dose-Response (Variable Slope) Y=Bottom+(Top-Bottom)/(1+10^((LogEC50−X)*HillSlope)) X is the logarithm of the concentration. Y is the response. Y starts at Bottom and goes to Top with a sigmoidal shape.
This is identical to the “four parameter logistic equation”. The IC50 values are calculated using this equation.
Consider `Cc1c(S(N)(=O)=O)cc(-c2cc3c(c(C(C)(C)C)c2)OCC(=O)N3C(C)C)n1CC1CCCCC1` [12/10], for which the IC50 (commonly the concentration that inhibits the measured activity by half) fell in the range of 500 to 2000 nM.
Same read-out and setting: as for `Cc1c(S(N)(=O)=O)cc(-c2cc(C(C)(C)C)c(OCCO)c(C(C)(C)C)c2)n1CC1CCCCC1` [16/8], the figure is 500 to 2000 nM; as for `Cc1c(S(N)(=O)=O)cc(-c2cc(C(C)(C)C)c(OCC(=O)O)c(C(C)(C)C)c2)n1CC1CCCCC1` [16/9], greater than 2000 nM.
Same read-out and setting: as for `Cc1c(S(N)(=O)=O)cc(-c2cc(C(C)(C)C)cc(S(=O)(=O)N(C)C(C)(C)C)c2)n1CC1CCCCC1` [22/4], the figure is 500 to 2000 nM; as for `CCNS(=O)(=O)c1cc(-c2cc(C(C)(C)C)cc(C(C)(C)C)c2)n(CC2CCCCC2)c1C` [Example 2, 1-(Cyclohexylmethyl)-5-(3,5-di-tert-butylphenyl)-N-ethyl-2-methyl-1H-pyrrole-3-sulfonamide], less than 500 nM.
`COCCNS(=O)(=O)c1cc(-c2cc(C(C)(C)C)cc(C(C)(C)C)c2)n(CC2CCCCC2)c1C` [Example 2/1] registered an IC50 of less than 500 nM.

The same assay, now with this note: read-out: RORγ activity in the TR-FRET Activity Assay (IC50 FRET), Group.
As to `Cc1c(S(=O)(=O)NCC(C)(C)C(=O)O)cc(-c2cc(C(C)(C)C)cc(C3(C)CC3)c2)n1CC1CCCCC1` [11/1], the IC50 is greater than 2000 nM.
On to `Cc1c(S(N)(=O)=O)c(C)n(CC2CCCCC2)c1-c1cc(C(C)(C)C)cc(C(C)(C)C)c1` [12/8], for which the IC50 is 500 to 2000 nM.
Still for that read-out and setting: as for `Cc1c(S(N)(=O)=O)cc(-c2cc3c(c(C(C)(C)C)c2)OCC(=O)N3C)n1CC1CCCCC1` [12/9], the figure is greater than 2000 nM.
Still for that read-out and setting: in the case of `Cc1c(S(N)(=O)=O)cc(-c2cc(OCC(F)(F)F)nc(C(C)(C)C)c2)n1CC1CCCCC1` [12/12] it was less than 500 nM; in that of `Cc1c(S(N)(=O)=O)cc(-c2cc(C(C)C)c3c(c2)C(C)(C)NS3(=O)=O)n1CC1CCCCC1` [12/17], greater than 2000 nM.
On the same count and under the same terms, in the case of `Cc1c(S(N)(=O)=O)cc(-c2ccc3c(c2)C(C)(C)CN(C(C)C)S3(=O)=O)n1CC1CCCCC1` [12/18] it was greater than 2000 nM; in that of `Cc1c(S(N)(=O)=O)cc(-c2cc(C(C)(C)C)cc(C(C)(C)CF)c2)n1CC1CCCCC1` [12/26], greater than 2000 nM.
In the case of `CC(=O)c1cc(-c2cc(S(N)(=O)=O)c(C)n2CC2CCCCC2)cc(C(C)(C)C)c1` [12/27], the IC50 was greater than 2000 nM.
Same read-out and setting: in the case of `Cc1c(S(N)(=O)=O)cc(-c2cc3c(c(C(C)(C)C)c2)OCCC3=O)n1CC1CCCCC1` [12/28] it was 500 to 2000 nM; in that of `Cc1c(S(N)(=O)=O)cc(-c2ccc(S(=O)(=O)NC(C)(C)C)c(C(F)F)c2)n1CC1CCCCC1` [12/29], less than 500 nM.
Same read-out and setting: in the case of `Cc1c(S(N)(=O)=O)cc(-c2ccc(S(=O)(=O)NC(C)(C)CCO)c(C(F)(F)F)c2)n1CC1CCCCC1` [12/31] it was 500 to 2000 nM.
On the same count and under the same terms, in the case of `COCC(C)(C)NS(=O)(=O)c1ccc(-c2cc(S(N)(=O)=O)c(C)n2CC2CCCCC2)cc1C(F)(F)F` [12/32] it was 500 to 2000 nM; in that of `Cc1c(S(N)(=O)=O)cc(-c2cc(C(C)(C)C)cc(C3(C)CC3)c2)n1CC1CCCCC1` [12/33], less than 500 nM; in that of `Cc1c(S(N)(=O)=O)cc(-c2ccc(N3CCOCC3)c(C(C)(C)C)c2)n1CC1CCCCC1` [12/34], 500 to 2000 nM.
For `Cc1c(S(N)(=O)=O)cc(-c2ccc(N3CCOCC3=O)c(C(C)(C)C)c2)n1CC1CCCCC1` [12/35], the IC50 is greater than 2000 nM.
As to `Cc1c(S(N)(=O)=O)cc(-c2cc(C(C)(C)C)c(F)c(C(C)(C)C)c2)n1CC1CCCCC1` [12/39], the IC50 was less than 500 nM.
Same read-out and setting: as for `Cc1c(S(N)(=O)=O)cc(-c2cc(C3(C)CC3)cc(C3(C)CC3)c2)n1CC1CCCCC1` [12/40], the figure is less than 500 nM; as for `Cc1c(S(N)(=O)=O)cc(-c2cc(C(F)(F)F)c3c(c2)C2(CCO3)CC2)n1CC1CCCCC1` [12/41], 500 to 2000 nM; as for `Cc1c(S(N)(=O)=O)cc(-c2cc3c(c(C(C)(C)C)c2)OCCC3O)n1CC1CCCCC1` (stereo not shown) [12/45], greater than 2000 nM.
Still for that read-out and setting: as for `Cc1c(S(N)(=O)=O)cc(-c2cc(C(=O)NC(C)(C)C)cc(C(F)(F)F)c2)n1CC1CCCCC1` [13/13], the figure is 500 to 2000 nM; as for `Cc1c(S(N)(=O)=O)cc(-c2cc(C(=O)N(C)C(C)(C)C)cc(C(F)(F)F)c2)n1CC1CCCCC1` [13/14], greater than 2000 nM; as for `COc1cc(-c2cc(S(N)(=O)=O)c(C)n2CC2CCCCC2)cc(C(C)(C)C)c1` [16/1], greater than 2000 nM.
Consider `Cc1c(S(N)(=O)=O)cc(-c2cc(OC(C)C)cc(C(C)(C)C)c2)n1CC1CCCCC1` [16/2], for which the IC50 was in the range of 500 to 2000 nM.
Still for that read-out and setting: in the case of `Cc1c(S(N)(=O)=O)cc(-c2cc(OCC3CC3)cc(C(C)(C)C)c2)n1CC1CCCCC1` [16/3] it was 500 to 2000 nM; in that of `CNC(=O)COc1c(C(C)(C)C)cc(-c2cc(S(N)(=O)=O)c(C)n2CC2CCCCC2)cc1C(C)(C)C` [16/10], greater than 2000 nM.
Same read-out and setting: as for `COCCOc1c(C(C)(C)C)cc(-c2cc(S(N)(=O)=O)c(C)n2CC2CCCCC2)cc1C(C)(C)C` [16/11], the figure is 500 to 2000 nM; as for `COc1cc(-c2cc(S(N)(=O)=O)c(C)n2CC2CCCCC2)cc(C(C)(C)C)n1` [17/1], greater than 2000 nM; as for `CCOc1cc(-c2cc(S(N)(=O)=O)c(C)n2CC2CCCCC2)cc(C(C)(C)C)n1` [17/2], 500 to 2000 nM.
Still for that read-out and setting: in the case of `Cc1c(S(N)(=O)=O)cc(-c2cc(OCCCN3CCOCC3)nc(C(C)(C)C)c2)n1CC1CCCCC1` [17/3] it was greater than 2000 nM.
With `COCCOc1cc(-c2cc(S(N)(=O)=O)c(C)n2CC2CCCCC2)cc(C(C)(C)C)n1` [17/4], the IC50 lay in the range of 500 to 2000 nM.
On the same count and under the same terms, in the case of `Cc1c(S(N)(=O)=O)cc(-c2ccc(S(=O)(=O)NC(C)(C)C)c(C(C)(C)C)c2)n1CC1CCCCC1` [22/1] it was 500 to 2000 nM; in that of `Cc1c(S(N)(=O)=O)cc(-c2ccc(S(=O)(=O)N(C)C(C)(C)C)c(C(C)(C)C)c2)n1CC1CCCCC1` [22/2], less than 500 nM.
On the same count and under the same terms, in the case of `Cc1c(S(N)(=O)=O)cc(-c2cc(C(C)(C)C)cc(S(=O)(=O)NC(C)(C)C)c2)n1CC1CCCCC1` [22/3] it was greater than 2000 nM.
Take `Cc1c(S(N)(=O)=O)cc(-c2ccc(S(=O)(=O)NC(C)(C)C)c(C(F)(F)F)c2)n1CC1CCCCC1` [22/5]: the IC50 is less than 500 nM.
Take `CCC(C)(C)NS(=O)(=O)c1ccc(-c2cc(S(N)(=O)=O)c(C)n2CC2CCCCC2)cc1C(F)(F)F` [22/6]: the IC50 is less than 500 nM.
With `Cc1c(S(N)(=O)=O)cc(-c2ccc(S(=O)(=O)N3CCCCC3(C)C)c(C(F)(F)F)c2)n1CC1CCCCC1` [22/9], the IC50 was in the range of 500 to 2000 nM.
As for `Cc1c(S(N)(=O)=O)cc(-c2ccc(S(=O)(=O)NC(C)(C)C)c(C3(C)CC3)c2)n1CC1CCCCC1` [22/18], the IC50 is less than 500 nM.
As to `Cc1c(S(N)(=O)=O)cc(-c2cnc(OCC(C)(C)C)c(C(F)(F)F)c2)n1CC1CCCCC1` [34/4], the IC50 was greater than 2000 nM.
Still for that read-out and setting: in the case of `Cc1c(S(N)(=O)=O)cc(-c2cnc(NCC(C)(C)C)c(C(F)(F)F)c2)n1CC1CCCCC1` [34/5] it was 500 to 2000 nM.
`CCC(=O)NCC(C)(C)c1cc(-c2cc(S(N)(=O)=O)c(C)n2CC2CCCCC2)cc(C(C)(C)C)c1` [49/1]: the IC50 is greater than 2000 nM.
Still for that read-out and setting: as for `Cc1c(S(N)(=O)=O)cc(-c2cc(C(C)(C)C)cc(C(C)(C)CNC(=O)C3CC3)c2)n1CC1CCCCC1` [49/2], the figure is greater than 2000 nM; as for `Cc1c(S(N)(=O)=O)cc(-c2cn(S(=O)(=O)c3cccc(Cl)c3)c3ccccc23)n1CC1CCCCC1` [53/1], greater than 2000 nM.
Still for that read-out and setting: in the case of `Cc1c(S(N)(=O)=O)cc(C2=CC(S(=O)(=O)c3ccc(Cl)cc3)c3ccccc32)n1CC1CCCCC1` (stereo not shown) [53/2] it was 500 to 2000 nM; in that of `Cc1c(S(N)(=O)=O)cc(-c2cc(C(C)(C)C)cc(C(C)(C)C)c2)n1CC1CCCCC1` [Example 1, 1-(Cyclohexylmethyl)-5-(3,5-di-tert-butylphenyl)-2-methyl-1H-pyrrole-3-sulfonamide], less than 500 nM; in that of `Cc1c(S(=O)(=O)NC2CC2)cc(-c2cc(C(C)(C)C)cc(C(C)(C)C)c2)n1CC1CCCCC1` [Example 3, 1-(Cyclohexylmethyl)-N-cyclopropyl-5-(3,5-di-tert-butylphenyl)-2-methyl-1H-pyrrole-3-sulfonamide], less than 500 nM.
Same read-out and setting: in the case of `Cc1c(S(=O)(=O)NCCCCCO)cc(-c2cc(C(C)(C)C)cc(C(C)(C)C)c2)n1CC1CCCCC1` [Example 5] it was less than 500 nM.
